The values below come from publication PMC6980506, “Comparative pharmacokinetics and pharmacodynamics of the advanced Retinol-Binding Protein 4 antagonist in dog and cynomolgus monkey” (PLoS ONE, 2020).

Series [1] concerns cytochrome (CYP) P450 enzymes. The arrangement: method as in PMID 26181715. The settings on record: all standard CYP P450 enzymes; read-out: CYP inhibition IC50; cited from earlier work.
The nature of series [2]: Metabolic clearance in cynomolgus monkey hepatocytes. The format is in vitro ADME. As to conditions: male, cryopreserved hepatocytes, Cyno hepatocytes, read-out: Hepatocyte CLint (intrinsic clearance). The procedure: All measurements were done in duplicate. Testosterone and 7-hydroxycoumarin were used as positive controls. Pooled cryopreserved human hepatocytes, cryopreserved male beagle dog hepatocytes, and cryopreserved male cynomolgus monkey hepatocytes were obtained from BioIVT (Baltimore, MD). Compound at 1 μM was incubated with 1 x 10^6 cells. Final DMSO concentration in the reaction mix was 0.1%. Aliquots (100 μL) of reaction mixtures were removed from the incubation plate at different timepoints and mixed with 150 μL of ice-cold acetonitrile. After incubation on ice for 15 min, the samples were centrifuged (3,600 rpm, 10 min, 4°C) to precipitate protein. The supernatants were diluted 1:1 (v/v) with water containing internal standards and subjected to the LC/MS analysis. Hepatic clearance was calculated using the well-stirred liver model

A short description of series [3]: Metabolic stability in cynomolgus monkey liver microsomes. The series is classed as in vitro ADME. As to conditions: male, pH 7.4, Cyno liver microsomes, 1 mg/mL, read-out: Microsomal Stability (% Remaining at 30 min). How it is done: All measurements were done in duplicate. Pooled mixed gender human donor microsomes, male beagle dog microsomes and male cynomolgus monkey were obtained from BioIVT (Baltimore, MD). […] A mixture containing 50 mM potassium phosphate buffer pH 7.4 and 1 mg/mL liver microsomes was pre-warmed for 10 min at 37°C in a shaking water bath, followed by the addition of test compound. Final DMSO concentration in the reaction mix was 0.1%. […] The final volume of the reaction mixture was 800 μL, containing 1 mg/mL liver microsomes, and 1 μM test compound. Aliquots (100 μL) of reaction mixtures were removed from the incubation plate at pre-defined timepoints and mixed with 150 μL of ice-cold acetonitrile, incubated on ice for 15 min, and samples were centrifuged (3,600 rpm, 10 min, 4°C) to precipitate protein. The supernatants were diluted 1:1 (v/v) with water containing the internal standard and subjected to the LC/MS analysis.
On the technique in general: Microsomes from liver hold many membrane-bound enzymes, among them those of drug oxidation.

The nature of series [4]: Plasma protein binding by equilibrium dialysis, dog plasma. The series is classed as in vitro ADME. As to conditions: pH 7.4, average and standard deviation, read-out: %PPB, plasma protein binding (converted). The procedure:
In vitro ADME tests were conducted at AMRI, Albany, NY.
(Equilibrium dialysis compares concentrations on both sides of a semipermeable membrane.)

Molecules are shown by their SMILES.

As usually defined, the IC50 is the midpoint of a concentration-inhibition curve. The term hepatocyte CLint denotes the rate of metabolic loss divided by the concentration. Broadly, the amount remaining is the share of the starting amount still present when the sample was taken. In the case of `Cc1cc(C(=O)O)nc(N2C[C@H]3C[C@@H](c4ccccc4C(F)(F)F)C[C@H]3C2)n1` [BPN-14136], the 50% inhibitory concentration (IC50) in series [1] is greater than 34 µM. Further, the hepatocyte CLint at 1 μM in series [2] stood at 0.7 µL/min/1e6 cells. The share remaining at 0.5 h, 1 μM in series [3] was found to be 95%. For the same compound, in series [4], the fraction unbound at 4 h, 1 μM was 0.003.
